In PubChem BioAssay AID1963973 (Molecular Pharmacology Branch, DTP, NCI, 2024):

System: 883617-216-R-J1-PDC tumor spheroids, viability
Test: Anticancer human tumor 883617-216-R-J1-PDC patient-derived bladder carcinoma cell line growth inhibition [PI3K]
Settings: spheroids with HUVEC and MSC; for IC50: curve of first compound; for viability, T/C: stronger effect = lower value
How it was run: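 Multi-cell spheroids combine tumor cells with HUVEC and human MSCs, treated with targeted agents alone or with inavolisib, alpelisib, duvelisib or copanlisib. Concentrations fall in half-log steps from at or near clinical Cmax, or from 10 microM where Cmax is unknown; viability read-out.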

[1] = second compound 0.00316 µM, first compound 0.0316 µM
[2] = second compound 0.00316 µM, first compound 0.1 µM
[3] = second compound 0.00316 µM, first compound 0.316 µM
[4] = second compound 0.00316 µM, first compound 1 µM
[5] = second compound 0.01 µM, first compound 0.0316 µM
[6] = second compound 0.01 µM, first compound 0.1 µM
[7] = second compound 0.01 µM, first compound 0.316 µM
[8] = second compound 0.01 µM, first compound 1 µM
[9] = second compound 0.0316 µM, first compound 0.0316 µM
[10] = second compound 0.0316 µM, first compound 0.1 µM
[11] = second compound 0.0316 µM, first compound 0.316 µM
[12] = second compound 0.0316 µM, first compound 1 µM
[13] = second compound 0.1 µM, first compound 0.0316 µM
[14] = second compound 0.1 µM, first compound 0.1 µM
[15] = second compound 0.1 µM, first compound 0.316 µM
[16] = second compound 0.1 µM, first compound 1 µM
[17] = second compound 0.316 µM, first compound 0.0316 µM
[18] = second compound 0.316 µM, first compound 0.1 µM
[19] = second compound 0.316 µM, first compound 0.316 µM
[20] = second compound 0.316 µM, first compound 1 µM
[21] = second compound 1 µM, first compound 0.0316 µM
[22] = second compound 1 µM, first compound 0.1 µM
[23] = second compound 1 µM, first compound 0.316 µM
[24] = second compound 1 µM, first compound 1 µM
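Also: spheroids exposed to agents for 7 days before the viability read.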

Q: `C=CC(=O)N1CCN(c2nc(=O)n(-c3c(C)ccnc3C(C)C)c3nc(-c4c(O)cccc4F)c(F)cc23)C(C)C1` (centres undefined) + CC(Nc1ccc2c(c1)OCCn1cc(N3C(=O)OCC3C(F)F)nc1-2)C(N)=O was tested. Which IC50 (second compound 0.00316 µM) did it give?
A: Its IC50 is > 10000 nM.

Q: And the IC50 (second compound 0.01 µM)?
A: The IC50 was 31.6 nM.

Q: And the IC50 (second compound 0.0316 µM)?
A: Its IC50 is < 31.6 nM.

Q: And the IC50 (second compound 0.1 µM)?
A: The IC50 was < 31.6 nM.

Q: And the IC50 (second compound 0.316 µM)?
A: The IC50 was < 31.6 nM.

Q: And the IC50 (second compound 1 µM)?
A: The IC50 was < 31.6 nM.

Q: What about the viability, T/C [1] of the same compound?
A: The viability, T/C was 59%.

Q: What about the viability, T/C [2] of the same compound?
A: Its viability, T/C is 49.2%.

Q: What about the viability, T/C [3] of the same compound?
A: The viability, T/C was 52.5%.

Q: What about the viability, T/C [4] of the same compound?
A: Its viability, T/C is 70.5%.

Q: What about the viability, T/C (second compound 0.00316 µM, first compound 3.16 µM) of the same compound?
A: Its viability, T/C is 70.8%.

Q: And the viability, T/C (second compound 0.00316 µM, first compound 10 µM)?
A: The viability, T/C was 56.5%.

Q: What about the viability, T/C [5] of the same compound?
A: The viability, T/C was 57.8%.

Q: What about the viability, T/C [6] of the same compound?
A: The viability, T/C was 51.8%.

Q: What about the viability, T/C [7] of the same compound?
A: Its viability, T/C is 47.7%.

Q: And the viability, T/C [8]?
A: The viability, T/C was 44.5%.

Q: And the viability, T/C (second compound 0.01 µM, first compound 3.16 µM)?
A: The viability, T/C was 56.5%.

Q: And the viability, T/C (second compound 0.01 µM, first compound 10 µM)?
A: Its viability, T/C is 61.1%.

Q: And the viability, T/C [9]?
A: Its viability, T/C is 45%.

Q: What about the viability, T/C [10] of the same compound?
A: Its viability, T/C is 38.2%.

Q: What about the viability, T/C [11] of the same compound?
A: Its viability, T/C is 30.8%.

Q: And the viability, T/C [12]?
A: The viability, T/C was 40.9%.

Q: And the viability, T/C (second compound 0.0316 µM, first compound 3.16 µM)?
A: Its viability, T/C is 42.6%.

Q: And the viability, T/C (second compound 0.0316 µM, first compound 10 µM)?
A: The viability, T/C was 49.7%.

Q: What about the viability, T/C [13] of the same compound?
A: The viability, T/C was 25.3%.

Q: And the viability, T/C [14]?
A: The viability, T/C was 21.6%.

Q: What about the viability, T/C [15] of the same compound?
A: The viability, T/C was 19.3%.

Q: And the viability, T/C [16]?
A: The viability, T/C was 25.7%.

Q: And the viability, T/C (second compound 0.1 µM, first compound 3.16 µM)?
A: The viability, T/C was 30.4%.

Q: And the viability, T/C (second compound 0.1 µM, first compound 10 µM)?
A: Its viability, T/C is 25.3%.

Q: And the viability, T/C [17]?
A: The viability, T/C was 13.5%.

Q: And the viability, T/C [18]?
A: Its viability, T/C is 13.4%.

Q: What about the viability, T/C [19] of the same compound?
A: The viability, T/C was 11%.

Q: And the viability, T/C [20]?
A: Its viability, T/C is 14.6%.

Q: What about the viability, T/C (second compound 0.316 µM, first compound 3.16 µM) of the same compound?
A: Its viability, T/C is 15.5%.

Q: What about the viability, T/C (second compound 0.316 µM, first compound 10 µM) of the same compound?
A: The viability, T/C was 17.3%.

Q: What about the viability, T/C [21] of the same compound?
A: Its viability, T/C is 10.3%.

Q: And the viability, T/C [22]?
A: Its viability, T/C is 9.98%.

Q: What about the viability, T/C [23] of the same compound?
A: The viability, T/C was 7.7%.

Q: What about the viability, T/C [24] of the same compound?
A: The viability, T/C was 7.88%.

Q: And the viability, T/C (second compound 1 µM, first compound 3.16 µM)?
A: Its viability, T/C is 12.1%.

Q: What about the viability, T/C (second compound 1 µM, first compound 10 µM) of the same compound?
A: Its viability, T/C is 9.67%.

Q: What does the source list for `CCN1CCN(Cc2ccc(Nc3ncc(F)c(-c4cc(F)c5nc(C)n(C(C)C)c5c4)n3)nc2)CC1` + CC(Nc1ccc2c(c1)OCCn1cc(N3C(=O)OCC3C(F)F)nc1-2)C(N)=O?
A: IC50 (second compound 0.00316 µM): 203 nM; IC50 (second compound 0.01 µM): 166 nM; IC50 (second compound 0.0316 µM): 122 nM; IC50 (second compound 0.1 µM): < 3.16 nM; IC50 (second compound 0.316 µM): < 3.16 nM; IC50 (second compound 1 µM): < 3.16 nM; viability, T/C (second compound 0.00316 µM, first compound 0.00316 µM): 86%; viability, T/C (second compound 0.00316 µM, first compound 0.01 µM): 80.7%; viability, T/C [1]: 59.5%; viability, T/C [2]: 58.4%; viability, T/C [3]: 46.2%; viability, T/C [4]: 43.8%; viability, T/C (second compound 0.01 µM, first compound 0.00316 µM): 73.8%; viability, T/C (second compound 0.01 µM, first compound 0.01 µM): 63.2%; viability, T/C [5]: 59.4%; viability, T/C [6]: 51.1%; viability, T/C [7]: 47.1%; viability, T/C [8]: 45%; viability, T/C (second compound 0.0316 µM, first compound 0.00316 µM): 57%; viability, T/C (second compound 0.0316 µM, first compound 0.01 µM): 55.4%; viability, T/C [9]: 52.6%; viability, T/C [10]: 52.6%; viability, T/C [11]: 37.5%; viability, T/C [12]: 36.3%; viability, T/C (second compound 0.1 µM, first compound 0.00316 µM): 49.3%; viability, T/C (second compound 0.1 µM, first compound 0.01 µM): 34.4%; viability, T/C [13]: 30.7%; viability, T/C [14]: 31%; viability, T/C [15]: 30.9%; viability, T/C [16]: 24.4%; viability, T/C (second compound 0.316 µM, first compound 0.00316 µM): 26.3%; viability, T/C (second compound 0.316 µM, first compound 0.01 µM): 26.8%; viability, T/C [17]: 18%; viability, T/C [18]: 19.9%; viability, T/C [19]: 15.4%; viability, T/C [20]: 17%; viability, T/C (second compound 1 µM, first compound 0.00316 µM): 13.8%; viability, T/C (second compound 1 µM, first compound 0.01 µM): 14%; viability, T/C [21]: 11.2%; viability, T/C [22]: 11.2%; viability, T/C [23]: 11.5%; viability, T/C [24]: 11.1%
